Measured values reported in paper PMC10930102 (Journal of Enzyme Inhibition and Medicinal Chemistry, 2024).
Where two headings read alike, the source gives them in different places.

Legend:
ALK = biological target: T1, ALK (Homo sapiens, UniProt Q9UM73); experiment: ALK in vitro enzymatic assay (radioisotope P81 filter-binding, Reaction Biology); format: biochemical
T1 construct: purchased Reaction Biology Corporation

HDAC6 = biological target: T2, HDAC6 (Homo sapiens, UniProt Q9UBN7); experiment: HDAC inhibition assay (fluorogenic peptide, Reaction Biology); format: biochemical; conditions: tested once, ten-dose starting at 30 µM
T2 construct: purchased Reaction Biology Corporation; host or cells: baculovirus expression system in SF9 cells
T2 sequence (Q9UBN7 1-1215): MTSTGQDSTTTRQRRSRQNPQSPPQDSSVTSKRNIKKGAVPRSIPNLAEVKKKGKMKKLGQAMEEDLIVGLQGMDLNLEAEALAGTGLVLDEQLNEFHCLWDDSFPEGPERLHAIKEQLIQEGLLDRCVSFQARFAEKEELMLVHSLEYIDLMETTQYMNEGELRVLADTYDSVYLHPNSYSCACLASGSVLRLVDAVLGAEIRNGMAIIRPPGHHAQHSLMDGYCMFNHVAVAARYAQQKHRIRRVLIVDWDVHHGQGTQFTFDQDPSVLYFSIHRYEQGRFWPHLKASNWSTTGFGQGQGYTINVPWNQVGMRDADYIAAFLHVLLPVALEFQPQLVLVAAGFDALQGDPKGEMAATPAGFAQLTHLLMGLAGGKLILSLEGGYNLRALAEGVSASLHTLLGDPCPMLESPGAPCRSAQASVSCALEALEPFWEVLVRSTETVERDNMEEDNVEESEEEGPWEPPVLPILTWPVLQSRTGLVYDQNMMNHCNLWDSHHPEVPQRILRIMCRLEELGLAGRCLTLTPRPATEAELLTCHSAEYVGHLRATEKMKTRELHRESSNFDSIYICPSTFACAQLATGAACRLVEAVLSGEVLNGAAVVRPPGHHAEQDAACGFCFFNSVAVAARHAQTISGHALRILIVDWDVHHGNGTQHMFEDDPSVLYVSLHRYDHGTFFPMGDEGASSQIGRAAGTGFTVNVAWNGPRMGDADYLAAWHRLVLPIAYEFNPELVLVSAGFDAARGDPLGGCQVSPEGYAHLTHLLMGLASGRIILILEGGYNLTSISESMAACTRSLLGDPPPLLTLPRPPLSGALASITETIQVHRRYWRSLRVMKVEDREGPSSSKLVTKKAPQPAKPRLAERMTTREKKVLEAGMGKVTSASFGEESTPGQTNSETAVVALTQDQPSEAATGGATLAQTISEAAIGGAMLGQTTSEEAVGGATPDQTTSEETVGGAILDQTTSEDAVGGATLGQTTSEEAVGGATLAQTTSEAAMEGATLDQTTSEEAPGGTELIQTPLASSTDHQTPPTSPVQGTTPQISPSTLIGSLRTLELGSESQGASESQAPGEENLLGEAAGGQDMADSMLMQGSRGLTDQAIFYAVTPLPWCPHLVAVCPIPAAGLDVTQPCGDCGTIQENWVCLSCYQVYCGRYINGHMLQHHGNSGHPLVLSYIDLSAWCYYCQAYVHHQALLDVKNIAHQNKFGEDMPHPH

HDAC11 = biological target: T3, HDAC11 (Homo sapiens, UniProt Q96DB2); experiment: as above; format: biochemical; conditions: tested once, ten-dose starting at 30 µM
T3 construct: purchased Reaction Biology Corporation; host or cells: baculovirus expression system in SF9 cells
T3 sequence (Q96DB2 1-347): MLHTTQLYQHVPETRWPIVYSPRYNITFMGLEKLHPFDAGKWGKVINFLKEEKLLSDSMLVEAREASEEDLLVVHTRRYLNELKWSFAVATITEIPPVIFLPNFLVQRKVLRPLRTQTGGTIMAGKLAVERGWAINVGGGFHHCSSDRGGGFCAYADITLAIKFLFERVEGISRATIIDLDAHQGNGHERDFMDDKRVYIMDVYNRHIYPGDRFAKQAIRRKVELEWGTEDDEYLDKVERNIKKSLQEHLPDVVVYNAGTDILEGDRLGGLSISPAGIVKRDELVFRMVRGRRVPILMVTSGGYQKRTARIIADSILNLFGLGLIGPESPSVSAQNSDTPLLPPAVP

HDAC8 = biological target: T4, HDAC8 (Homo sapiens, UniProt Q9BY41); experiment: HDAC inhibition assay (fluorogenic diacylpeptide, Reaction Biology); format: biochemical; conditions: tested once, ten-dose starting at 30 µM
T4 construct: purchased Reaction Biology Corporation; host or cells: baculovirus expression system in SF9 cells
T4 sequence (Q9BY41 1-377): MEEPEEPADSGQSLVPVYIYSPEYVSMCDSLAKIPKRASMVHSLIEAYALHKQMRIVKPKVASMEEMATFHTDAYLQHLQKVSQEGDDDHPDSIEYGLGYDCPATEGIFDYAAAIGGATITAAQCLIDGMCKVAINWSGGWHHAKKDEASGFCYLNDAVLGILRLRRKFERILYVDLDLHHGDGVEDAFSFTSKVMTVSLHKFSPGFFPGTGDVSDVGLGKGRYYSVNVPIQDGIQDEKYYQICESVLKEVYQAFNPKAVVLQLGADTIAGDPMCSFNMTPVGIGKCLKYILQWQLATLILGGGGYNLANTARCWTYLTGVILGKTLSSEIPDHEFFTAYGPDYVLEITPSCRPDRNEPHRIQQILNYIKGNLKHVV

HDAC1 = biological target: T5, HDAC1 (Homo sapiens, UniProt Q13547); experiment: HDAC inhibition assay (fluorogenic peptide, Reaction Biology); format: biochemical; conditions: tested once, ten-dose starting at 30 µM
T5 construct: purchased Reaction Biology Corporation; host or cells: baculovirus expression system in SF9 cells

MCF7 = experiment: SRB antiproliferation assay; format: cell-based; conditions: Homo sapiens, 48 h, read-out: Antiproliferative activity (IC50) MCF7
[1] = tested on: protein expression level of HDAC1, HDAC6, or HDAC8; experiment: Western blot of HDAC protein expression; format: cell-based, human; conditions: western blot after treatment (supplemental Figure S3)
Experimental: (§1) Treated cells were washed three times with ice-cold phosphate-buffered saline and lysed in lysis buffer containing 100 mM Tris-HCl, 12 mM sodium deoxycholate, 12 mM sodium lauroylsarcosinate, and protease inhibitor cocktail (BioTools). Cells were heated in lysis buffer at 95 °C for 5 min and then the cell membrane was broken up by sonication (Bioruptor). Cellular debris and unbroken cells were removed by centrifugation (12,500 × g for 30 min, 4 °C). Protein concentration was determined using the bicinchoninic acid assay (Thermo). Cell extracts (20 μg) were resolved by 12% sodium dodecyl sulfate-polyacrylamide gel electrophoresis (SDS-PAGE), transferred to PVDF membranes, and probed separately with antibodies for Ac-histone H3, Ac-α-tubulin, histone H3, α-tubulin, HDAC1, HDAC6, HDAC8 and GAPDH. The antibodies of GAPDH, HDAC1, and HDAC8 were purchased from ABclonal and all other antibodies were from Cell Signalling Technology. Antibody signals were detected using an enhanced chemiluminescence system.
Figure S3. Western blots of HDAC1, HDAC6, and HDAC8 after drug treatment and vehicle control
activity was assessed by MTS assay, and the concentration of inhibitors was determined to be half of their
was tested five times, and the results were normalized to 1. (blank) […]

[2] = tested on: phosphorylation level of Y1604 on ALK; experiment: Western blot of ALK phosphorylation in H2228 cells; format: cell-based, human; conditions: 6 h, 3b 2 µM, 3c 4 µM
Source text: (§2) Figure 4. Effect of test compounds on H2228 cells. […] (A) Western blots of phosphorylated tyrosine residue 1640 on ALK as well as acetylated (Ac) α-tubulin and histone H3 with their corresponding total proteins for normalisation. GAPDH was used as a loading control. (B) Quantification of western blotting results using Image J. Error bars indicate ± S.D.E. *p-Value ≤ 0.05, **p-value ≤ 0.01, ***p-value ≤ 0.001.
as §1

H2228 = experiment: SRB antiproliferation assay; format: cell-based; conditions: Homo sapiens, NCI-H2228, 48 h, ALK-addicted cells, read-out: Antiproliferative activity (IC50) H2228
A549 = experiment: SRB antiproliferation assay; format: cell-based; conditions: Homo sapiens, 48 h, read-out: Antiproliferative activity (IC50) A549
U87MG = experiment: SRB antiproliferation assay; format: cell-based; conditions: Homo sapiens, U-87 MG, 48 h, read-out: Antiproliferative activity (IC50) U87MG
CYP1A2 = biological target: T6, CYP1A2 (Homo sapiens, UniProt P05177); experiment: CYP450 inhibition assay; format: in vitro ADME; conditions: human recombinant enzyme
T6 construct: purchased Reaction Biology Corporation; host or cells: CYP cDNA baculovirus expression systems

CYP2C19 = biological target: T7, CYP2C19 (Homo sapiens, UniProt P33261); experiment: CYP450 inhibition assay; format: in vitro ADME; conditions: human recombinant enzyme
T7 construct: purchased Reaction Biology Corporation; host or cells: CYP cDNA baculovirus expression systems
Experimental: Assays were performed by Reaction Biology Corporation. […] CYP assays used human recombinant CYP1A2, CYP2C9, CYP2C19, CYP2D6, and CYP3A4 expressed in CYP cDNA baculovirus expression systems. […] Substrates used were 3-cyano-7-ethoxycoumarin for CYP1A2, 2C19, and 2D6; Vivid OOMR Substrate for CYP2C9; and Vivid BOMR Substrate for CYP3A4. hERG inhibition assays involved a binding competition between the tested compounds and a fluorescently labelled compound tracer (Predictor hERG Tracer Red) for membrane-bound hERG (Predictor hERG Membrane). E-4031 served as the positive control.

[3] = tested on: acetylated histone H3, a substrate of class I HDAC; experiment: Western blot of acetylated histone H3 in H2228 cells; format: cell-based, human; conditions: 6 h, 3b 2 µM
Source text: as §2
as §1, with “The antibodies of GAPDH, HDAC1, and HDAC8 were purchased from ABclonal and all other antibodies were from Cell Signalling Technology.” left out

[4] = 20 μM ATP, ten-dose IC50 mode, duplicate, average

T1 sequence (Q9UM73 19-1620): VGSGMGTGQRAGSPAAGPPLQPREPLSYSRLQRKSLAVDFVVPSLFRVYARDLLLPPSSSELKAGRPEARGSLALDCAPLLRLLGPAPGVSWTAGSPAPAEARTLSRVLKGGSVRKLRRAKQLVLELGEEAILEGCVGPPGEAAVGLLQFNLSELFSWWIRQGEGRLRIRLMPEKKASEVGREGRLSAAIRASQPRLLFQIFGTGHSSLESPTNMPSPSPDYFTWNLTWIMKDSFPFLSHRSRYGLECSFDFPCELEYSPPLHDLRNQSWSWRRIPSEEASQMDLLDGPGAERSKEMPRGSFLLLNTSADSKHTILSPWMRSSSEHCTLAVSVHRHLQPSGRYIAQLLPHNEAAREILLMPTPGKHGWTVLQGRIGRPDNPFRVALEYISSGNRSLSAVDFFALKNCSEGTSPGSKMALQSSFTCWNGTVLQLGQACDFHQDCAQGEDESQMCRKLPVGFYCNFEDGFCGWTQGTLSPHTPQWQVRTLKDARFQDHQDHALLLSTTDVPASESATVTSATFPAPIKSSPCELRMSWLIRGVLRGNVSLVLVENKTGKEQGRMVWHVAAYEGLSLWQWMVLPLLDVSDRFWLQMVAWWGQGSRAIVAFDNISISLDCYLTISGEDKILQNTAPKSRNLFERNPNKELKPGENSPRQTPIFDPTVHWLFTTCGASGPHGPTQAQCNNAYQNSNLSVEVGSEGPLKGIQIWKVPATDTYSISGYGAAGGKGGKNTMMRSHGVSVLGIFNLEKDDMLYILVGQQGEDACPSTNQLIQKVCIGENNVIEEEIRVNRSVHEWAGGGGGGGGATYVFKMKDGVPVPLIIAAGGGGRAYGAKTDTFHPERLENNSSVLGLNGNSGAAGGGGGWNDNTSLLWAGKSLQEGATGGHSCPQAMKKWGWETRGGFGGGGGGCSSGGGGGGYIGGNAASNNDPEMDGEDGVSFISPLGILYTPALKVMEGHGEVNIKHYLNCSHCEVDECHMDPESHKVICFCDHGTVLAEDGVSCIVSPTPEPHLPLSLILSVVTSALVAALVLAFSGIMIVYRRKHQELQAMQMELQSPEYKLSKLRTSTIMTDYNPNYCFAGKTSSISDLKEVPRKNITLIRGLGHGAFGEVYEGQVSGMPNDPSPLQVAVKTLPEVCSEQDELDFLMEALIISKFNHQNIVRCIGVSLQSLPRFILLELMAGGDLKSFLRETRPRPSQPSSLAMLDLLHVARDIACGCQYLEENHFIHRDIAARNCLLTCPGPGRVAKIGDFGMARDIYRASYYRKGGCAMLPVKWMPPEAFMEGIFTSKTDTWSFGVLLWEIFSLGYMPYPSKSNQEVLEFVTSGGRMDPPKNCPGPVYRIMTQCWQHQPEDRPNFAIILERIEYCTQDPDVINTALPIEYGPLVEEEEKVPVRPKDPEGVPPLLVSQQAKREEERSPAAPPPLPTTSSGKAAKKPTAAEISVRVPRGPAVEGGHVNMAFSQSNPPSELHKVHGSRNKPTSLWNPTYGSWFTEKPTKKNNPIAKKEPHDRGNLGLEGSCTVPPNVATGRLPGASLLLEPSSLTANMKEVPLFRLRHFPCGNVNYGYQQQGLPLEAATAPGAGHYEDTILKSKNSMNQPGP
T5 sequence (Q13547 whole entry): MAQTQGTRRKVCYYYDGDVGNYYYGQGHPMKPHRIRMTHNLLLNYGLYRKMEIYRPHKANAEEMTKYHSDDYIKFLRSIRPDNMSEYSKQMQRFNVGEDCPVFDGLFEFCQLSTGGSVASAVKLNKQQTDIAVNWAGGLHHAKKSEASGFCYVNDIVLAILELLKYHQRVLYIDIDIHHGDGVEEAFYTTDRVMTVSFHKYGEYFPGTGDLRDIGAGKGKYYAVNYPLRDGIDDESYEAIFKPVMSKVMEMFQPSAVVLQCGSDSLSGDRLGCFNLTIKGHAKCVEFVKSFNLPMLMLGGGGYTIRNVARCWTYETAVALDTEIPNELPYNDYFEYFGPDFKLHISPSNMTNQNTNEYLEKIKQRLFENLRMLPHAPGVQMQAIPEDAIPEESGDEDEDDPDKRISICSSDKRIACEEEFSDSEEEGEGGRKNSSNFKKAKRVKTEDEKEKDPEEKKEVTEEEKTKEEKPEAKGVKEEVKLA
T7 sequence (P33261 whole entry): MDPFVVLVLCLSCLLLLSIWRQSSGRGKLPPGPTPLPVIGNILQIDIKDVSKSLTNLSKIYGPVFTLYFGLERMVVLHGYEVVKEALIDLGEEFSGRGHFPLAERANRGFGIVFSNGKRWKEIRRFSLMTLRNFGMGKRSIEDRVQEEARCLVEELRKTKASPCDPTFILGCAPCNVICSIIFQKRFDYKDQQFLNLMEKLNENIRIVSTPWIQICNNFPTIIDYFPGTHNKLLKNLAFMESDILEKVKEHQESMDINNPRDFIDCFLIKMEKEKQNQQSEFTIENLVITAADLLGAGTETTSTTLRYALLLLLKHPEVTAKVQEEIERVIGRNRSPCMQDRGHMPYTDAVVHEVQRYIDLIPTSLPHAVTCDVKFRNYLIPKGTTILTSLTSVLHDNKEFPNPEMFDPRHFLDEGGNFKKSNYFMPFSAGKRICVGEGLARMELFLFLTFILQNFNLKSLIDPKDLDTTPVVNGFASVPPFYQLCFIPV
T6 sequence (P05177 whole entry): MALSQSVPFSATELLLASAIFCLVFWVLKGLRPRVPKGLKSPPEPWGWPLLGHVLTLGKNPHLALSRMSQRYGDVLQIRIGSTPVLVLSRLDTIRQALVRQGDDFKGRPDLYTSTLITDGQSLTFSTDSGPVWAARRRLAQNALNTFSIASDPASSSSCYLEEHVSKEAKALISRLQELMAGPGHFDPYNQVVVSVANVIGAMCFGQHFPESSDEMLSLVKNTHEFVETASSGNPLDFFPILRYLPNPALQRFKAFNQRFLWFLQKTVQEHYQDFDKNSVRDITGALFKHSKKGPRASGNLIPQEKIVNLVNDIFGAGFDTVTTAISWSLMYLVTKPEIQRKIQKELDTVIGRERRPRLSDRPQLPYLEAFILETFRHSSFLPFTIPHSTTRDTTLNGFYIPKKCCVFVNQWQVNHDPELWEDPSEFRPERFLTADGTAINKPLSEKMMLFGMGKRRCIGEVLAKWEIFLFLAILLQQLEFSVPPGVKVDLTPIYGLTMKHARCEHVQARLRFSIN

CC(C)NC(=O)CCCn1/c(=N/C(=O)c2ccccc2)[nH]c2cc(/C=C/C(=O)NO)ccc21 [Compound 3a, (E)-N-(5-((E)-3-(Hydroxyamino)-3-oxoprop-1-en-1-yl)-1–(4-(isopropylamino)-4-oxobutyl)-1H-benzo[d]imidazol-2(3H)-ylidene)benzamide]
IC50 (ALK; [4]): 5750 nM | IC50 (HDAC6): 810 nM | IC50 (HDAC11): 9350 nM | IC50 (HDAC8): 2950 nM | IC50 (HDAC1): 6180 nM

CC(C)NC(=O)[C@H]1CC[C@@H](n2/c(=N/C(=O)c3ccccc3)[nH]c3ccc(/C=C/C(=O)NO)cc32)CC1 [Compound 3c, (E)-N-(6-((E)-3-(Hydroxyamino)-3-oxoprop-1-en-1-yl)-1-((1S,4S)-4-(isopropylcarbamoyl)cyclohexyl)-1H-benzo[d]imidazol-2(3H)-ylidene)benzamide]
IC50 (MCF7): 980 ± 30 nM | protein expression level of HDAC1, HDAC6, or HDAC8 [1]: not perturbed | IC50 (ALK): 15 nM | IC50 (ALK; [4]): 5.2 nM | fold greater ALK inhibition ability (ALK; hydroxamate moved from C-5 to C-6 position (versus 3b)): 3 fold | IC50 (HDAC6): 2340 nM | phosphorylation level of Y1604 on ALK [2]: significantly decreased | IC50 (HDAC11): > 30000 nM | IC50 (H2228): 210 ± 70 nM | IC50 (A549): 7260 ± 2660 nM | IC50 (U87MG): 11100 ± 810 nM | IC50 (HDAC8): 2870 nM | IC50 (HDAC1): > 30000 nM

CC(C)NC(=O)CCCn1/c(=N/C(=O)c2cc(F)cc(F)c2)[nH]c2cc(/C=C/C(=O)NO)ccc21 [Compound 3d, (E)-3,5-Difluoro-N-(5-((E)-3-(hydroxyamino)-3-oxoprop-1-en-1-yl)-1–(4-(isopropylamino)-4-oxobutyl)-1H-benzo[d]imidazol-2(3H)-ylidene)benzamide]
IC50 (ALK; [4]): 3730 nM | IC50 (HDAC6): 2470 nM | IC50 (HDAC11): > 30000 nM | IC50 (HDAC8): 7770 nM | IC50 (HDAC1): > 30000 nM

CCCC(=O)/N=c1\[nH]c2cc(/C=C/C(=O)NO)ccc2n1CCCC(=O)NC(C)C [Compound 3e, 4-((E)-2-(butyrylimino)-5-((E)-3-(hydroxyamino)-3-oxoprop-1-en-1-yl)-2,3-dihydro-1H-benzo[d]imidazol-1-yl)-N-isopropylbutanamide]
IC50 (ALK; [4]): > 10000 nM | IC50 (HDAC6): 210 nM | IC50 (HDAC11): 1420 nM | IC50 (HDAC8): 1780 nM | IC50 (HDAC1): 840 nM

CC(C)NC(=O)[C@H]1CC[C@@H](n2/c(=N/C(=O)c3ccccc3)[nH]c3cc(NC(=O)CCCCCCC(=O)NO)ccc32)CC1 [Compound 3f]
IC50 (ALK; [4]): 15 nM | IC50 (HDAC6): 100 nM | IC50 (HDAC11): 1720 nM | IC50 (HDAC8): 2520 nM | IC50 (HDAC1): 2290 nM

CC(C)NC(=O)CCCn1/c(=N/C(=O)c2ccccc2)[nH]c2cc(Br)ccc21 [Compound 6, (E)-N-(5-Bromo-1–(4-(isopropylamino)-4-oxobutyl)-1H-benzo[d]imidazol-2(3H)-ylidene)benzamide]
inhibition at 10 µM (ALK; single dose at 10 μM, duplicate, average, read-out: ALK relative inhibition of enzymatic activity): 18.8%

C[C@@H](Oc1cc(-c2cnn(C3CCNCC3)c2)cnc1N)c1c(Cl)ccc(F)c1Cl [Crizotinib, reference compound]
IC50 (MCF7): 95 ± 24 nM | IC50 (H2228): 130 ± 50 nM | IC50 (U87MG): 48 ± 8 nM

CC(=O)N1CCN(c2ccc(OCC3COC(Cn4ccnc4)(c4ccc(Cl)cc4Cl)O3)cc2)CC1 (stereo not drawn) [Ketoconazole, reference compound]
IC50 (CYP1A2): 590 nM | IC50 (CYP2C19): 1300 nM

CCCCc1nc2cc(/C=C/C(=O)NO)ccc2n1CCN(CC)CC [Pracinostat (2), Pracinostat, reference compound]
acetylated histone H3 level [3]: highest level of acetylated histone | phosphorylation level of Y1604 on ALK [2]: enhanced the ALK kinase activity | IC50 (H2228): 690 ± 50 nM
